For orientation: IC50 means the concentration that inhibits the measured activity by half.

The results in this text go back to ChEMBL document CHEMBL5053493, “Design and synthesis of novel orally selective and type II pan-TRK inhibitors to overcome mutations by property-driven optimization” (Eur J Med Chem, 2021).

In test [1] the target is T1, Aurora kinase A (Homo sapiens, UniProt O14965).
T1 sequence (O14965 whole entry): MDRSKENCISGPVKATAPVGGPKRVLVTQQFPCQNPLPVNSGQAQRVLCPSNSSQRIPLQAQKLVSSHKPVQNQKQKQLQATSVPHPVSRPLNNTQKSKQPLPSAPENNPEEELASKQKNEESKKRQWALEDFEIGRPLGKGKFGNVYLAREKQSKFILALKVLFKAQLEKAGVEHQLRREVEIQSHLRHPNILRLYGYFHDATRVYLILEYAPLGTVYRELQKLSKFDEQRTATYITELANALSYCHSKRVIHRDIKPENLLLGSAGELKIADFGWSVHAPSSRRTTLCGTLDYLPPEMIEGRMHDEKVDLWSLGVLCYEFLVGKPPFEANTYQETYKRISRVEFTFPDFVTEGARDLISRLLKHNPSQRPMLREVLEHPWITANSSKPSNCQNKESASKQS
Put plainly: biochemical.
Description: Inhibition of GST-tagged AURA Ser123 to 401 residues) (unknown origin) expressed in Sf9 insect cells using tetra-LLRASLG peptide as substrate incubated for 90 mins in presence of ATP

Test [2] relates to KM12. Put plainly: Antiproliferative activity against human KM12 cells assessed as reduction in cell viability measured after 72 hrs by MTS assay.
Test [3] concerns the target T2, High affinity nerve growth factor receptor (Homo sapiens, UniProt P04629).
Description: Inhibition of wildtype human TRKA using poly (Glu,Tyr) 4:1 as substrate in presence of [gamma-33P]ATP by hotspot kinase assay
Test [4] addresses T2, High affinity nerve growth factor receptor. This is another data set of the same source.
Test [5] deals with BDNF/NT-3 growth factors receptor (Homo sapiens, UniProt Q16620). Put plainly: Inhibition of TRKB (unknown origin).
Test [6] concerns the target NT-3 growth factor receptor (Homo sapiens, UniProt Q16288). Put plainly: Inhibition of TRKC (unknown origin).
The nature of test [7]: Inhibition of TRKC G696A mutant (unknown origin) in presence of [gamma-33P]ATP by hotspot kinase assay. More on the design: species or system Homo sapiens.
Test [8] can be described thus: Inhibition of TRKA L657M mutant (unknown origin) in presence of [gamma-33P]ATP by hotspot kinase assay. More on the design: species or system Homo sapiens.
The nature of test [9]: Inhibition of TRKC L686M mutant (unknown origin) in presence of [gamma-33P]ATP by hotspot kinase assay. More on the design: species or system Homo sapiens.
A short description of test [10]: Inhibition of TRKA G595R/A608D double mutant (unknown origin) bin presence of [gamma-33P]ATP by hotspot kinase assay. More on the design: species or system Homo sapiens.
Test [11] can be described thus: Inhibition of TRKA F589L mutant (unknown origin) in presence of [gamma-33P]ATP by hotspot kinase assay. Set-up: species or system Homo sapiens.
The nature of test [12]: Inhibition of TRKA G595R/L657M double mutant(unknown origin) in presence of [gamma-33P]ATP by hotspot kinase assay. Set-up: species or system Homo sapiens.
Test [13] is described as follows: Inhibition of TRKA […]/G667C double mutant (unknown origin) in presence of [gamma-33P]ATP by hotspot kinase assay. Set-up: species or system Homo sapiens.
Test [14] can be described thus: Inhibition of TRKC G623R mutant (unknown origin) in presence of [gamma-33P]ATP by hotspot kinase assay. Set-up: species or system Homo sapiens.
The target of test [15] is Aurora kinase B (Homo sapiens, UniProt Q96GD4). Put plainly: Inhibition of recombinant full length His-tagged human AURB expressed in baculovirus expression system using tetra-LLRASLG peptide as substrate incubated for 180 mins in presence of ATP. More on the design: species or system Sf9.
Aurora kinase B, sequence (Q96GD4 whole entry): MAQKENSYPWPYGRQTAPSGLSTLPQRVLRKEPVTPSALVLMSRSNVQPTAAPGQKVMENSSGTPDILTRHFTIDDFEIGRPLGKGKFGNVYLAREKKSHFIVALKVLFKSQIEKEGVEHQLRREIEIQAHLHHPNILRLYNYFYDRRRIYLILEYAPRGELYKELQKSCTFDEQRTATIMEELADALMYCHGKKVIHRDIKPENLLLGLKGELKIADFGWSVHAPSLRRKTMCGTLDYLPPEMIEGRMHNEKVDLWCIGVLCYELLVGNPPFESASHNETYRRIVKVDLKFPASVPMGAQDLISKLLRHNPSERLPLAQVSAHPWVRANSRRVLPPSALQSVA

T2 sequence (P04629 whole entry): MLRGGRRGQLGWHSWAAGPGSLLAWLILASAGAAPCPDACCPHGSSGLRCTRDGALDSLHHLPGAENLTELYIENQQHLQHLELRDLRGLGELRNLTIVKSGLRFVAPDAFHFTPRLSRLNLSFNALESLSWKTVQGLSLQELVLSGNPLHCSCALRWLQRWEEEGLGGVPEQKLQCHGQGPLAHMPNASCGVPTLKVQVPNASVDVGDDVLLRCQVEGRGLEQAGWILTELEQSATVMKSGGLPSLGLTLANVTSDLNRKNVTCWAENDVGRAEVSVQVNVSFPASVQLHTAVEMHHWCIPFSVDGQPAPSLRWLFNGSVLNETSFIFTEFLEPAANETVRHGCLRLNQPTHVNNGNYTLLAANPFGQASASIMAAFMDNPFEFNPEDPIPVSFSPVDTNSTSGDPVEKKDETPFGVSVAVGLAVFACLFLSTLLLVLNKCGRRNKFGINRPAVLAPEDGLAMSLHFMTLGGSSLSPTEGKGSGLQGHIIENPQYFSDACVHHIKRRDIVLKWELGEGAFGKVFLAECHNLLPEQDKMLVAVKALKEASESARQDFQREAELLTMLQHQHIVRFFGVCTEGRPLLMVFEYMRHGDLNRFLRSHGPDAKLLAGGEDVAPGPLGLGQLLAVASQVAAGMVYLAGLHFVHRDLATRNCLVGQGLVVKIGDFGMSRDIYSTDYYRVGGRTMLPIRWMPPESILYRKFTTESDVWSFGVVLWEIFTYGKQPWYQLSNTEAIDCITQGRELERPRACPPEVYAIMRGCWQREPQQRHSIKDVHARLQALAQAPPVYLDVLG
BDNF/NT-3 growth factors receptor, sequence (Q16620 whole entry): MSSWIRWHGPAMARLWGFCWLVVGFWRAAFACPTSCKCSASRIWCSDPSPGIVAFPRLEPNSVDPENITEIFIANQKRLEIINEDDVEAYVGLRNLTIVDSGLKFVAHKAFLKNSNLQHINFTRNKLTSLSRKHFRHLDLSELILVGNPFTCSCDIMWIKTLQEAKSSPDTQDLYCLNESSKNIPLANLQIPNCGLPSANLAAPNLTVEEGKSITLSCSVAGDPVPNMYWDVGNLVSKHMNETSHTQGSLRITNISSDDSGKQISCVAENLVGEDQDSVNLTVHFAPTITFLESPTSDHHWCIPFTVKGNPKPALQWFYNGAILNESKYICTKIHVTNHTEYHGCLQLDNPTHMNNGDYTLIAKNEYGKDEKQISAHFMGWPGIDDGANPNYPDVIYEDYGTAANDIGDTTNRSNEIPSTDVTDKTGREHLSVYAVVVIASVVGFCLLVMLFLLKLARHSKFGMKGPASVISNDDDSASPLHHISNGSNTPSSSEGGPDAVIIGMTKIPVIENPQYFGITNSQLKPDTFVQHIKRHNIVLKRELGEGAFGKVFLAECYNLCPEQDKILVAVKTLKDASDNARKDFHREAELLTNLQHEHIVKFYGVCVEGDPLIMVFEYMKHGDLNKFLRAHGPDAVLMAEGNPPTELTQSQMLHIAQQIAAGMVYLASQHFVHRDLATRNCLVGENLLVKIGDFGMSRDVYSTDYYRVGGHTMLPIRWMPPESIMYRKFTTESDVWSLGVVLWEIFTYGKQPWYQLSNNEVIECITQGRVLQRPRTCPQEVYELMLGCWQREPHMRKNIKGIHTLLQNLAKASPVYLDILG
NT-3 growth factor receptor, sequence (Q16288 whole entry): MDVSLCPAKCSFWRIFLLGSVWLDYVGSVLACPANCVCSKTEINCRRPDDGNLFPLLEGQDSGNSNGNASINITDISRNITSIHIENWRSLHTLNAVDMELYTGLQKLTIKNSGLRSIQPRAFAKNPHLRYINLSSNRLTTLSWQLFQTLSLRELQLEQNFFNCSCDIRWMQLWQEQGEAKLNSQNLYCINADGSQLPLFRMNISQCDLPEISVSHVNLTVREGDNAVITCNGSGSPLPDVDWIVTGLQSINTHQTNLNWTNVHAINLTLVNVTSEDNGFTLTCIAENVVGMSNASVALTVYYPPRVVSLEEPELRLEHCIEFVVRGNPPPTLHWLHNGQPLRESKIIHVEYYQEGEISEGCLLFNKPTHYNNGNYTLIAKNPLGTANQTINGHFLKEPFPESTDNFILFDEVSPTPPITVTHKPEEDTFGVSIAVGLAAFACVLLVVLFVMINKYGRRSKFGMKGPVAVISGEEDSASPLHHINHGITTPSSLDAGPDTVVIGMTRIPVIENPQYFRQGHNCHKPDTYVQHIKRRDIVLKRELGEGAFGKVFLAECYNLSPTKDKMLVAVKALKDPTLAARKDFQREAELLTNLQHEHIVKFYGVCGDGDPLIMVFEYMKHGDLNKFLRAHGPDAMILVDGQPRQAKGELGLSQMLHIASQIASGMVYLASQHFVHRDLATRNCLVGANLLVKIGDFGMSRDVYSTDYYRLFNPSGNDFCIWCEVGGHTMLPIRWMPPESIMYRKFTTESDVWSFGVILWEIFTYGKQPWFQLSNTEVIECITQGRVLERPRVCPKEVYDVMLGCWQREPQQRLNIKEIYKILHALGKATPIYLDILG

As to `CCOc1cc2c(NCCc3ccc(NC(=O)Nc4ccccc4)cc3)ncnc2cc1F`, the IC50 in test [1] came to 0.0656 µM; in test [2] (km12), 0.324 µM. Consider `CCOc1cc2c(NCCc3ccc(NC(=O)Nc4cccc(Cl)c4)cc3)ncnc2cc1F`, for which, in test [1], the IC50 worked out at 0.108 µM. In the case of `CCOc1cc2ncnc(Nc3ccc(NC(=O)Nc4ccccc4)cc3)c2cc1F`, the IC50 in test [1] stood at 0.338 µM; in test [2] (Homo sapiens, KM12, 72 h), 2.02 µM.

Turning to `COc1cc2c(Oc3ccc(NC(=O)C4(C(=O)Nc5ccc(F)cc5)CC4)cc3F)ccnc2cc1OCCCN1CCOCC1` [FORETINIB], in test [3], the IC50 is 0.00297 µM.

As to `CCOc1cc2ncnc(NCCc3ccc(NC(=O)Nc4ccccc4)cc3)c2cc1F`, the 50% inhibitory concentration (IC50) in test [1] is 0.0292 µM; in [4] it was above 9 µM; in [2] (km12), 0.324 µM. The molecule `CCOc1cc2ncnc(NCCc3ccc(NC(=O)Nc4cccc(C(F)(F)F)c4)cc3)c2cc1F` yielded an IC50 in test [1] of 0.0632 µM.

Take `CCOc1cc2ncnc(NCCc3ccc(NC(=O)Nc4cccc(F)c4)cc3)c2cc1F`: the midpoint of inhibition in test [1], the IC50, lay at 0.006 µM.

The molecule `CCOc1cc2ncnc(NCCc3ccc(NC(=O)Nc4cccc(Cl)c4)cc3)c2cc1F` came in with an IC50 in test [1] of 0.0269 µM.

The molecule `COc1cc2ncnc(NCCc3ccc(NC(=O)Nc4ccccc4)cc3)c2cc1OC` gave an IC50 in test [1] of 0.023 µM. Regarding `O=C(Nc1ccccc1)Nc1ccc(CCNc2ncnc3ccccc23)cc1`, in test [1], the concentration for half-maximal inhibition (IC50) was determined as 0.14 µM. On the same count and under the same terms, for `CCOc1cc2ncnc(Nc3ccc(NC(=O)Nc4cccc(Cl)c4)cc3)c2cc1F` the value was 0.156 µM.

For the molecule `O=C(Nc1ccccc1)Nc1ccc(CCNc2ncnc3cc(F)c(F)cc23)cc1`, in test [2] (Homo sapiens, KM12, 72 h), the IC50 was found to be 1.52 µM.

Regarding `CN(C)CCCOc1ccc2c(NCCc3cnc(NC(=O)Nc4cccc(Cl)c4)s3)ncnc2c1`, the half-inhibitory concentration (IC50) in test [5] is 0.00178 µM; in [6], 0.00021 µM; in [1] it was 0.0056 µM; in test [4] it was 0.0368 µM; in [2] (Homo sapiens, KM12, 72 h), above 10 µM. `O=C(Nc1cnn2ccc(N3CCC[C@H]3c3cc(F)ccc3F)nc12)N1CC[C@@H](O)C1`: the IC50 stood at 0.00328 µM in test [7]; 0.0207 µM in test [8]; 0.15 µM in [9]; 0.0802 µM in [10]; 0.0521 µM in test [11]; 2.51 µM in [12]. For the same molecule, the concentration for half-maximal inhibition (IC50) in [13] was above 10 µM; in [14] it was 0.209 µM.

Regarding `CCOc1cc2ncnc(NCCc3ccc(NC(=O)Nc4cc(C(F)(F)F)ccc4OC)cc3)c2cc1F`, the IC50 in test [1] was determined as 0.454 µM; in [15], 0.548 µM.

Take `CCOc1cc2ncnc(NCCc3ccc(NC(=O)Nc4cc(Cl)ccc4OC)cc3)c2cc1F`: the half-inhibitory concentration (IC50) in test [1] was determined as 0.352 µM; in test [15], 0.512 µM.

As to `CCOc1cc2ncnc(NCc3ccc(NC(=O)Nc4ccccc4)cc3)c2cc1F`, the IC50 in [1] turned out to be 0.008 µM; in test [2] (Homo sapiens, KM12, 72 h), 2.4 µM. The matching figures for `CCOc1cc2ncnc(NCc3ccc(NC(=O)Nc4cccc(Cl)c4)cc3)c2cc1F`: 0.002 µM and 1.27 µM. Turning to `CCOc1cc2ncnc(NCCc3ccc(NC(=O)Nc4ccc(Cl)c(C(F)(F)F)c4)cc3)c2cc1F`, the half-maximal inhibitory concentration (IC50) in test [1] was found to be 0.349 µM. Still for that read-out and setting: to `CCOc1cc2ncnc(NCCc3ccc(NC(=O)Nc4ccc(F)c(Cl)c4)cc3)c2cc1F` belongs 0.044 µM.

`COc1cc2nccc(Oc3ccc(NC(=O)C4(C(=O)Nc5ccc(F)cc5)CC4)cc3)c2cc1OC` [CABOZANTINIB] gave a 50% inhibitory concentration (IC50) in test [3] of 0.0723 µM.
